Data published in ChEMBL document CHEMBL1154429, “Identifying mutator phenotypes among fluoroquinolone-resistant strains of Streptococcus pneumoniae using fluctuation analysis” (2007).

Tests used:
Format in all cases: functional
Streptococcus pneumoniae [1] = experiment: Antibacterial activity against Streptococcus pneumoniae D39-3 with parC S79Y, gyrA S81F mutation by […]
Streptococcus pneumoniae [2] = experiment: Antibacterial activity against Streptococcus pneumoniae 455 with parC S79Y, gyrA S81F mutation by […]
Streptococcus pneumoniae [3] = experiment: Antibacterial activity against Streptococcus pneumoniae 3386 with parC S79F, gyrA S81F mutation by […]

Measured: MIC

C[C@H]1COc2c(N3CCN(C)CC3)c(F)cc3c(=O)c(C(=O)O)cn1c23.C[C@H]1COc2c(N3CCN(C)CC3)c(F)cc3c(=O)c(C(=O)O)cn1c23.O [LEVOFLOXACIN]
> 32 µg/mL: all assays above
